Source: patent publication US20030215899A1, “Reversible oxidation of protein tyrosine phosphatases” (CEPTYR, Inc., priority 2002, published 2003)
“Also recorded” adds a separate entry of the source.

Tests used:
PTP1B (50 kDa PTP) = target: T1, PTP1B (50 kDa PTP) (Rattus norvegicus, UniProt P20417); experiment: modified in-gel PTP assay (RCML substrate), insulin stimulated Rat-1 cells; type: cell-based; conditions: 50 nM insulin, serum-starved Rat-1 cells
T1 construct: endogenous in cells; host or cells: Rat-1 fibroblasts
T1 sequence (P20417 1-432): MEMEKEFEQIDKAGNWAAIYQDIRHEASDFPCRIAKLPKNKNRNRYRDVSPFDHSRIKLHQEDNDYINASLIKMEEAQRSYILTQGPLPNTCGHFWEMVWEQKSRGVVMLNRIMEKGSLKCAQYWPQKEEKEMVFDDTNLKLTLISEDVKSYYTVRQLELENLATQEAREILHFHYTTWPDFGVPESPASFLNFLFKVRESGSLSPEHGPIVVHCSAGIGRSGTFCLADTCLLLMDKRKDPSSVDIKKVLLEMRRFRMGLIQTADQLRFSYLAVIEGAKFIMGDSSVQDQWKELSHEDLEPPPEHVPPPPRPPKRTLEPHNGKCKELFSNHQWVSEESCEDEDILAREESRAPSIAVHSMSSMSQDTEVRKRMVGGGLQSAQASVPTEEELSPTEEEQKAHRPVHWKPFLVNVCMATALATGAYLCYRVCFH
Experimental: (§1) The effect of insulin-induced H2O2 production on PTP oxidation was examined using the modified in-gel PTP assay essentially as described in Example 1. Serum-starved Rat-1 cells were exposed to 50 nM insulin for 2, 5, 10, 20, and 30 minutes. Lysates were prepared under anaerobic conditions in the presence of 10 mM IAA and then subjected to in-gel PTP assays. The substrate incorporated into the SDS-PAGE gels for these assays was ^32P-labeled reduced, carboxamidomethylated and maleylated lysozyme (RCML) (1.5×10^6 cpm/20 ml gel solution, ˜2 μM p-Tyr).
(§2) The oxidized 45 kDa and 50 kDa PTPs were identified as TC-45 and PTP1B, respectively, by immunodepletion and immunoblotting. Total cell lysates were prepared as described in Example 1. Lysate (400 μg) was incubated with normal IgG, anti-PTP1B antibody (FG6, LaMontagne et al., Mol. Cell. Biol. 18:2965-75 (1998)), or anti-TC45 antibody (1910H, Lorenzen et al., J. Cell. Biol. 131:631-43 (1995)) coupled to protein G-Sepharose ^T beads (Amersham Biosciences). After the immunoprecipitation step, the immune complexes and supernatants were collected and subjected to in-gel PTP assays. Immunodepletion of the 50 kDa PTP from the lysate with anti-PTP1B antibody is shown in FIG. 11B, and immunodepletion of the 45 kDa PTP with antibody specific for TC45 is shown in FIG. 11C. […]

TC45 (45 kDa PTP) = target: T2, TC45 (45 kDa PTP) (Rattus norvegicus, UniProt P35233); experiment: as above; type: cell-based; conditions: 50 nM insulin, serum-starved Rat-1 cells
T2 construct: endogenous in cells; host or cells: Rat-1 fibroblasts
T2 sequence (P35233 1-382 isoform P35233-2): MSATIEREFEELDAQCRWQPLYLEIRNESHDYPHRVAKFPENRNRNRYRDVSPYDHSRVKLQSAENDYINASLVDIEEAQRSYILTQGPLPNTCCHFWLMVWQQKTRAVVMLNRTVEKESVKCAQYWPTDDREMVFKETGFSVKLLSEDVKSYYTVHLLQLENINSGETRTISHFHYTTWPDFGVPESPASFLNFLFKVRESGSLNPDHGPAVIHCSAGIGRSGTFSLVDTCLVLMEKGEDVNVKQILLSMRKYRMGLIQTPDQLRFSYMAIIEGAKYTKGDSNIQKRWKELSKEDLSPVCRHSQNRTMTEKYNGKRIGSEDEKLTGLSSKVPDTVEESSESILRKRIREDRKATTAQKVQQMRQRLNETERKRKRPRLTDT
Experimental: as §1, §2

[1] = tested on: PTPs in peripheral blood mononuclear lymphocytes; experiment: in-gel protection assay, PHA-stimulated peripheral blood mononuclear lymphocytes; type: cell-based, human; conditions: 50 mM IAA, cells without ASBA-1 pretreatment
Experimental: Peripheral blood mononuclear lymphocytes were purified from human blood. In 5 ml media (RPMI), 2×10^7 cells were incubated in 50 μM ASBA-1 (PTP specific inhibitor) for 90 minutes and stimulated with phytohemagglutinin (PHA, 0.5 μL of 5.0 mg/ml stock) for 2, 10 or 30 min. […] Desalted proteins were separated on a 2 ml Source Q anion exchange column (Amersham Pharmacia Biotech) using a 0-1M NaCl gradient in 20 mM Tris, pH 7.5; 1 mM EDTA; 0.05% Triton X-100.

SHP-2 (E76A mutant) = SHP-2 (E76A mutant) (Homo sapiens, UniProt Q06124, E76A); type: biochemical
PTPs in Rat-1 cells = experiment: modified in-gel PTP activity assay of Rat-1 cell lysates; type: cell-based
From the text: To determine whether ROS stimulated intracellular tyrosine phosphorylation through the oxidation and inhibition of cellular PTPs, a modified in-gel PTP activity assay was devised, as follows: As substrate, poly (4:1) Glu-Tyr (Sigma) was labeled with [γ-^32P]-ATP using the GST-FER fusion PTK, as described previously (Shen et al., 1998 J. Biol. Chem. 273:6474-81). The labeled substrates were used within three weeks to limit the variation of its specific activity from experiment to experiment. The lysis buffer (25 mM CH3COONa, 1% NP-40, 150 mM NaCl, 10% glycerol, pH 5.5) was degassed at 4° C. for overnight, before catalase and superoxide dismutase (both 100 μg/ml), protease inhibitors and 10 mM iodoacetic acid (IAA) were added. Following stimulation, cells were lysed under anaerobic conditions in an argon chamber. Lysates (25 μg) were processed as described herein and an “in-gel” phosphatase assay (Burridge and Nelson, 1995) was conducted using SDS-PAGE gels containing a radioactively-labeled substrate (1.5×10^6 cpm/20 ml gel solution, approximately 2 μM p-Tyr).
Cells were triggered with the appropriate stimulus and harvested under anaerobic conditions in lysis buffer containing IAA. Those PTPs that had not encountered ROS in the cell became irreversibly inactivated by alkylation of their active site Cys with IAA. However, in contrast, any PTPs in which the active site Cys had been oxidized in response to the stimulus were resistant to alkylation. For the “in-gel” phosphatase assay, a 10% SDS-PAGE gel was cast containing a radioactively-labeled substrate. An aliquot of cell lysate was subjected to SDS-PAGE and proteins in the gel were sequentially denatured, then renatured in the presence of reducing reagents. […] The reaction was then terminated by fixing, staining and destaining the gel. Finally the gel was dried and exposed to film. The presence of a PTP was visualized by substrate dephosphorylation, as the appearance of a clear, white area on the black background of labeled substrate.

Compound | oxidation of 50 kDa PTP (PTP1B) (PTP1B (50 kDa PTP)) | oxidation of 45 kDa PTP (TC45) (TC45 (45 kDa PTP)) | inactivation of PTPs [1] | inactivation of purified SHP-2 (SHP-2 (E76A mutant)) | inactivation of PTPs in lysate by alkylation (PTPs in Rat-1 cells)
insulin: polypeptide hormone used as stimulus | transiently oxidized; also recorded: induced the transient oxidation | transiently oxidized; also recorded: induced the transient oxidation |  |  | 
O=C(O)CI [IAA, iodoacetic acid] |  |  | inactivated by IAA | inactivated by IAA | effectively inactivated PTPs
